Reference: ChEMBL document CHEMBL1128242, “Polyiodinated triglyceride analogs as potential computed tomography imaging agents for the liver” (J Med Chem, 1995)

Assays:
Assay type in all cases: ADME, organism-based
Rattus norvegicus [1] = assay: Distribution of radioactivity was determined in heart at 30 min after intravenous administration of [125I]-labeled 2-oleoglycerol 1,3-Bis-[omega-(3-amino-2,4,6-triiodophenyl)alkanoates] in rats; details: in vivo, 0.5 h
Rattus norvegicus [2] = assay: Distribution of radioactivity was determined in kidney at 24 hr after intravenous administration of [125I]-labeled 2-oleoglycerol 1,3-Bis-[omega-(3-amino-2,4,6-triiodophenyl)alkanoates] in rats; details: in vivo
Rattus norvegicus [3] = assay: Distribution of radioactivity was determined in blood at 3h after intravenous administration of 1,3-Disubstituted Triacylglycerols in rats; details: in vivo
Rattus norvegicus [4] = assay: Distribution of radioactivity was determined in spleen at 24 hr after intravenous administration of 1,3-Disubstituted Triacylglycerols in rats; details: in vivo
Rattus norvegicus [5] = assay: Distribution of radioactivity was determined in spleen at 30 min after intravenous administration of 1,3-Disubstituted Triacylglycerols in rats; details: in vivo, 0.5 h
Rattus norvegicus [6] = assay: Distribution of radioactivity was determined in kidney at 3h after intravenous administration of [125I]-labeled 2-oleoglycerol 1,3-Bis-[omega-(3-amino-2,4,6-triiodophenyl)alkanoates] in rats; details: in vivo
Rattus norvegicus [7] = assay: Polyacrylamide Gel Electrophoresis (PAGE) to determined the concentration of stacking gel(SG) in rats after iv administration of [125I]-labeled 2-Oleolyl 1,3-disubstituted triglycerols was reported; details: in vivo
Rattus norvegicus [8] = assay: Distribution of radioactivity was determined in liver at 3h after intravenous administration of [125I]-labeled 2-oleoglycerol 1,3-Bis-[omega-(3-amino-2,4,6-triiodophenyl)alkanoates] in rats; details: in vivo
Rattus norvegicus [9] = assay: Distribution of radioactivity was determined in plasma at 24 hr after intravenous administration of [125I]-labeled 2-oleoglycerol 1,3-Bis-[omega-(3-amino-2,4,6-triiodophenyl)alkanoates] in rats; design: unit not given here; details: in vivo
Rattus norvegicus [10] = assay: Distribution of radioactivity was determined in heart at 24 after intravenous administration of [125I]-labeled 2-oleoglycerol 1,3-Bis-[omega-(3-amino-2,4,6-triiodophenyl)alkanoates] in rats; details: in vivo
Rattus norvegicus [11] = assay: Analysis of lipid-soluble radioactivity in liver 24 hour after iv administration of [125I]-labeled 2-Oleoyl 1,3-disubstituted Triacylglycerols and represented as % CHCl3/CH3OH from rat; details: in vivo
Rattus norvegicus [12] = assay: Distribution of radioactivity was determined in spleen at 48 hr after intravenous administration of 1,3-Disubstituted Triacylglycerols in rats; details: in vivo
Rattus norvegicus [13] = assay: Analysis of lipid-soluble radioactivity in liver 0.5 hour after iv administration of [125I]-labeled 2-Oleoyl 1,3-disubstituted Triacylglycerols and represented as % CHCl3/CH3OH from rat; details: in vivo
Rattus norvegicus [14] = assay: Distribution of radioactivity was determined in spleen at 3h after intravenous administration of [125I]-labeled 2-oleoglycerol 1,3-Bis-[omega-(3-amino-2,4,6-triiodophenyl)alkanoates] in rats; details: in vivo

Distribution of radioactivity (Rattus norvegicus [1]) [% dose/g]	Distribution of radioactivity (Rattus norvegicus [2]) [% dose/g]	Distribution of radioactivity (Rattus norvegicus [3]) [% dose/organ]	Distribution of radioactivity (Rattus norvegicus [4]) [% dose/organ]	Distribution of radioactivity (Rattus norvegicus [5]) [% dose/organ]	Distribution of radioactivity (Rattus norvegicus [6]) [% dose/g]	Radioactivity (Rattus norvegicus [7]) [%]	Distribution of radioactivity (Rattus norvegicus [8]) [% dose/g]	Distribution of radioactivity (Rattus norvegicus [9])	Distribution of radioactivity (Rattus norvegicus [10]) [% dose/g]	Lipid-soluble radioactivity (Rattus norvegicus [11])	Distribution of radioactivity (Rattus norvegicus [12]) [% dose per organ]	Lipid-soluble radioactivity (Rattus norvegicus [13])	Distribution of radioactivity (Rattus norvegicus [14]) [% dose/g]	Structure (SMILES)
0.84	0.05	0.3	12.5	14.4	0.03	83.5	9	0.01	0.06	93.7	9.8	97.5	17.7	CCCCCCCC/C=C/CCCCCCCC(=O)OC(COC(=O)C(CC)Cc1c(I)cc(I)c(N)c1I)COC(=O)C(CC)Cc1c(I)cc(I)c(N)c1I (stereo not given)
0.36	0.07	0.5	12.2	12	0.04	95.7	10.3	0.01	0.03	59.5	16.6	62.6	23.6	CCCCCCCC/C=C/CCCCCCCC(=O)OC(COC(=O)Cc1c(I)cc(I)c(N)c1I)COC(=O)Cc1c(I)cc(I)c(N)c1I
0.59	0.2	0.9	6.4	9.5	0.09	65.6	6.94	0.14	0.07	88.8	3.7	91.1	14.5	CCCCCCCC/C=C/CCCCCCCC(=O)OC(COC(=O)CCCCc1c(I)cc(I)c(N)c1I)COC(=O)CCCCc1c(I)cc(I)c(N)c1I
0.55	0.22	2.7	0.8	10.5	0.18	28.1	5.84	0.21	0.1	30.2	0.3	56	15.3	CCCCCCCC/C=C/CCCCCCCC(=O)OC(COC(=O)CCCCCCc1c(I)cc(I)c(N)c1I)COC(=O)CCCCCCc1c(I)cc(I)c(N)c1I
0.23	0.25	2.2	5.8	13.9	0.21	72.6	8.74	0.14	0.07	90.3	3.1	91.3	23.5	CCCCCCCC/C=C/CCCCCCCC(=O)OC(COC(=O)CCCCCc1c(I)cc(I)c(N)c1I)COC(=O)CCCCCc1c(I)cc(I)c(N)c1I
